molecular target: T1, streptavidin (Streptomyces avidinii, UniProt P22629); assay: Cy5-streptavidin binding on HotSpot discovery array, 5-mer L-peptide library; settings: 5-mer L-peptide library array, Cy5-streptavidin; from average of three arrays
T1 construct: purchased GE Healthcare (Little Chalfont, UK)
In short: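 Array of 2,476,099 5-mer peptides (19 amino acids, no cysteine) with Gly-Ser linkers, probed overnight at 4 °C with 0.5 µg/ml Cy5-streptavidin in Tris pH 7.4 buffer containing casein or BSA plus Tween-20. Cy5 fluorescence read at 635 nm; peptides selected by signal-to-background >4 across three arrays.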

T1 sequence (P22629 25-183): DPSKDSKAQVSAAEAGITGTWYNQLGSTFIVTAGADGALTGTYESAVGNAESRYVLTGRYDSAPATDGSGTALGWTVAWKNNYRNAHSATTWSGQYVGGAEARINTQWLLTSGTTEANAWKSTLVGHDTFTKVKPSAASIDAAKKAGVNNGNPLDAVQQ

Row | Substance | S/B (signal to background ratio)
1 | VEHPQ | 55.4
2 | PYHPQ | 151.0
3 | PKHPM | 19.4
4 | FHPQQ | 49.0
5 | VFHPM | 53.0
6 | HPQMS | 20.7
7 | GFHPQ | 181.0
8 | RPHPQ | 133.3
9 | AVHPM | 23.8
10 | KHPMA | 27.5
11 | TAHPQ | 120.0
12 | NGHPM | 54.5
13 | SHPMS | 25.8
14 | YHPMN | 26.1
15 | WGHPQ | 216.3
16 | VIHPM | 20.7
17 | LSHPQ | 156.2
18 | HPQHN | 28.0
19 | DHHPM | 32.9
20 | VHPQQ | 30.0
21 | SDHPM | 34.7
22 | IYHPQ | 169.4
23 | TYHPQ | 168.9

Row | Substance | S/B (signal to background ratio)
24 | TGHPQ | 128.8
25 | RHPQA | 134.8
26 | FLHPQ | 145.5
27 | FHPQY | 56.4
28 | QHHPQ | 136.3
29 | EMHPQ | 44.9
30 | IGHPQ | 174.2
31 | VHPQN | 153.6
32 | QSHPQ | 135.3
33 | YRHPQ | 185.8
34 | NYHPQ | 182.7
35 | YAHPQ | 186.2
36 | HQHPQ | 145.4
37 | IHPQF | 148.4
38 | FSHPQ | 192.9
39 | GLHPQ | 132.8
40 | RMHPQ | 119.1
41 | LHPMA | 41.0
42 | WFHPQ | 178.0
43 | QHPQM | 40.0
44 | HPMGN | 22.1
45 | WRHPQ | 235.3
46 | QHPQG | 122.5

Row | Substance | S/B (signal to background ratio)
47 | SHPQY | 47.6
48 | SNHPQ | 144.9
49 | ITHPM | 41.5
50 | RGHPQ | 135.0
51 | MHPMG | 42.9
52 | PWHPQ | 182.5
53 | HHPMN | 25.7
54 | MAAHF [L-amino acid 5-mer array peptide] | 25.6
55 | YNHPQ | 193.0
56 | APHPM | 38.6
57 | QRHPM | 57.2
58 | RDHPQ | 132.4
59 | WSHPM | 129.1
60 | LVHPM | 31.0
61 | IRHPQ | 165.9
62 | GHHPQ | 149.8
63 | HWHPQ | 166.7
64 | PHPQQ | 53.1
65 | QFHPQ | 180.1
66 | QPHPM | 52.0
67 | WHPMV | 49.4
68 | HPQVE | 19.8
69 | LAMFH [L-amino acid 5-mer array peptide] | 21.1

same assay, conditions: 5-mer L-peptide library array, Cy5-streptavidin; from the average of three arrays

Row | Substance | S/B (signal to background ratio)
70 | AYHPM | 66.7
71 | QKHPQ | 86.0
72 | WWHPQ | 111.4
73 | QHPQV | 84.6
74 | LHPQN | 105.2
75 | SVHPQ | 116.5
76 | WHPMN | 67.3
77 | PHPQS | 95.0
78 | DYHPQ | 103.8
79 | LAAYH [L-amino acid 5-mer array peptide] | 67.7
80 | IHPMA | 70.9
81 | HGHPM | 69.3
82 | DPHPQ | 88.5
83 | HPQGT | 67.0
84 | DHPQN | 72.7
85 | FTHPM | 86.0
86 | HPQFH | 64.4

Row | Substance | S/B (signal to background ratio)
87 | HPQVN | 63.9
88 | WVHPM | 78.5
89 | LGHPM | 76.1
90 | DLHPQ | 60.4
91 | DGHPQ | 62.6
92 | MIHPQ | 97.1
93 | YHHPM | 85.0
94 | NWHPM | 84.8
95 | GHPMG | 65.8
96 | EFHPQ | 100.0
97 | KMHPQ | 80.4
98 | VVHPQ | 79.7
99 | KHPQA | 92.8
100 | HPQFA | 113.5
101 | MHPQS | 75.9
102 | QTHPQ | 90.7
103 | SFHPM | 65.3

same assay, conditions: 5-mer L-peptide library, from the average of three arrays

Row | Substance | S/B (signal to background ratio)
104 | HPMQS | 4.9
105 | QHPMK | 4.4
106 | WYHHP | 5.0
107 | HPWRN | 4.7
108 | MAFHF [L-amino acid 5-mer array peptide] | 4.8
109 | HPAYT | 5.1
110 | MVQHF [L-amino acid 5-mer array peptide] | 5.2
111 | EHPMY | 4.5
112 | KHPMM | 4.9
113 | NHPQL | 4.1
114 | IAAYH [L-amino acid 5-mer array peptide] | 4.8
115 | WGHPH | 4.1
116 | MPQHF | 4.4
117 | HPQPW | 4.6
118 | HPMHW | 4.9
119 | GHPQP | 4.5
120 | HPMNH | 4.4

same assay, conditions: average of three arrays, L-peptide 5-mer library

Row | Substance | S/B (signal to background ratio)
121 | LAAYH [L-amino acid 5-mer array peptide] | 67.7
122 | MAFHF [L-amino acid 5-mer array peptide] | 4.8
123 | MVQHF [L-amino acid 5-mer array peptide] | 5.2
124 | IAAYH [L-amino acid 5-mer array peptide] | 4.8
125 | TPSFH [L-amino acid 5-mer array peptide] | 6.7
126 | RFDLL [L-amino acid 5-mer array peptide] | 5.2
127 | MAAHF [L-amino acid 5-mer array peptide] | 25.6
128 | NWDEI [L-amino acid 5-mer array peptide] | 7.3
129 | LAMFH [L-amino acid 5-mer array peptide] | 21.1

same assay, conditions: signal to background ratio; 5-mer L-peptide library array, Cy5-streptavidin

Row | Substance | S/B
130 | HPQWA | 8.4
131 | HPMQN | 8.8
132 | THPQK | 14.5
133 | YHPQI | 14.3
134 | HPQLG | 9.1
135 | FHPMF | 14.7
136 | HPQIF | 6.3
137 | HPMGW | 18.2
138 | HPQRF | 7.3
139 | HPMQA | 6.4
140 | DDHPM | 11.6
141 | HPQRN | 17.7
142 | HPMGI | 7.9
143 | IHPMM | 6.6
144 | HPMPW | 8.2
145 | KHPQW | 9.2

Row | Substance | S/B
146 | TPSFH [L-amino acid 5-mer array peptide] | 6.7
147 | AHPQT | 18.8
148 | HPMFV | 7.5
149 | HPMPD | 5.4
150 | THPMM | 11.1
151 | HPQRH | 8.8
152 | AHPQD | 10.2
153 | HPWRY | 11.4
154 | RFDLL [L-amino acid 5-mer array peptide] | 5.2
155 | QHPQK | 15.8
156 | RHPQE | 8.3
157 | HPMYM | 8.3
158 | THPQT | 11.0
159 | NWDEI [L-amino acid 5-mer array peptide] | 7.3
160 | HPMFA | 17.2
161 | EIHPM | 9.9

Reference: PMC5608804, “Stepwise Evolution Improves Identification of Diverse Peptides Binding to a Protein Target” (Scientific Reports, 2017)
